Experimental data from the NIST ThermoML archive (doi:10.1021/acs.jced.5b00536).
Where “and” joins values, the source holds several entries; their conditions need not be identical. Equal values may be shown once.

Test: xn = mol fraction of the nth substance listed
Conditions: x2 = 0.79; for electrical conductivity / mass density: 100 kPa, Liquid; for electrical conductivity: Alternating current cell with electrodes; for mass density: Buoyancy - hydrostatic balance; for surface tension liquid-gas: Maximal bubble pressure

[Ca+2].[F-].[F-] [calcium fluoride] + [F-].[Li+]
Conditions | electrical conductivity [S/m] | mass density | surface tension liquid-gas [mN/m]
1063.8 K | 0.053003 | – | –
1065.5 K | 0.053101 | – | –
1067.1 K | 0.053153 | – | –
1068.8 K | 0.05333 | – | –
1070.4 K | 0.05353 | – | –
1071.9 K | 0.05375 | – | –
1073.5 K | 0.05359 | – | –
1075.2 K | 0.0537 | – | –
1075.7 K | – | 2107.8 kg/m3 | –
1075.9 K | – | 2107.3 kg/m3 | –
1076.2 K | – | 2106.7 kg/m3 and 2107.8 kg/m3 | –
1076.7 K | – | 2106.6 kg/m3 | –
1076.8 K | 0.05368 | 2106 kg/m3 | –
1077.1 K | – | 2106 kg/m3 | –
1077.5 K | – | 2105.4 kg/m3 | –
1077.7 K | – | 2104.8 kg/m3 | –
1078 K | – | 2104.8 kg/m3 | –
1078.4 K | – | 2104.2 kg/m3 | –
1078.5 K | 0.05386 | – | –
1078.7 K | – | 2104.1 kg/m3 | –
1079.1 K | – | 2103.5 kg/m3 | –
1079.4 K | – | 2103.5 kg/m3 | –
1079.8 K | – | 2102.9 kg/m3 | –
1080 K | – | 2102.9 kg/m3 | –
1080.1 K | 0.05394 | – | –
1080.3 K | – | 2102.3 kg/m3 | –
1080.7 K | – | 2101.7 kg/m3 | –
1081.1 K | – | 2101.6 kg/m3 | –
1081.4 K | – | 2101 kg/m3 | –
1081.8 K | 0.054 | 2101 kg/m3 | –
1082 K | – | 2100.4 kg/m3 | –
1082.4 K | – | 2099.8 kg/m3 | –
1082.9 K | – | 2099.7 kg/m3 | –
1083.4 K | 0.0542 | – | –
1083.5 K | – | 2099.1 kg/m3 | –
1083.6 K | – | 2099.1 kg/m3 | –
1083.8 K | – | 2098.5 kg/m3 | –
1084.3 K | – | 2098.5 kg/m3 | –
1084.5 K | – | 2097.9 kg/m3 | –
1085 K | – | 2097.8 kg/m3 | –
1085.1 K | 0.05436 | – | –
1085.5 K | – | 2097.2 kg/m3 | –
1085.9 K | – | 2096.6 kg/m3 | –
1086.1 K | – | 2096.6 kg/m3 | –
1086.4 K | – | 2096 kg/m3 | –
1086.8 K | 0.05455 | – | –
1086.9 K | – | 2095.9 kg/m3 | –
1087.2 K | – | 2095.3 kg/m3 | –
1087.8 K | – | 2094.7 kg/m3 | –
1088.2 K | – | 2094.7 kg/m3 | –
1088.4 K | 0.05469 | – | –
1088.6 K | – | 2094.1 kg/m3 | –
1088.8 K | – | 2094 kg/m3 | –
1089.3 K | – | 2093.4 kg/m3 | –
1089.5 K | – | 2092.8 kg/m3 | –
1090 K | – | 2092.8 kg/m3 | –
1090.1 K | 0.05496 | – | –
1090.5 K | – | 2092.2 kg/m3 | –
1090.8 K | – | 2092.1 kg/m3 | –
1091.2 K | – | 2093.7 kg/m3 | –
1091.7 K | – | 2093.7 kg/m3 | –
1091.8 K | 0.05506 | – | –
1091.9 K | – | 2093.1 kg/m3 | –
1092.8 K | – | 2091.9 kg/m3 and 2092.4 kg/m3 | –
1093.1 K | – | 2091.3 kg/m3 | –
1093.4 K | 0.05525 | – | –
1093.8 K | – | 2091.2 kg/m3 | –
1094.1 K | – | 2090.6 kg/m3 | –
1094.4 K | – | 2090.6 kg/m3 | –
1094.8 K | – | 2092.8 kg/m3 | –
1095 K | – | 2092.2 kg/m3 | –
1095.1 K | 0.05547 | – | –
1095.5 K | – | 2092.1 kg/m3 | –
1096.2 K | – | 2090.9 kg/m3 | –
1096.3 K | – | 2090.9 kg/m3 and 2091.5 kg/m3 | –
1096.7 K | – | 2090.3 kg/m3 | –
1096.8 K | 0.0556 | – | –
1096.9 K | – | 2089.7 kg/m3 | –
1097.3 K | – | 2089.1 kg/m3 | –
1097.6 K | – | 2089.1 kg/m3 | –
1098 K | – | 2088.5 kg/m3 | –
1098.4 K | – | 2087.9 kg/m3 | –
1098.5 K | 0.05571 | – | –
1098.8 K | – | 2087.3 kg/m3 | –
1099.1 K | – | 2087.2 kg/m3 | –
1099.5 K | – | 2086.6 kg/m3 | –
1099.9 K | – | 2086 kg/m3 | –
1100.2 K | 0.05586 | 2086 kg/m3 | –
1100.7 K | – | 2085.4 kg/m3 | –
1101 K | – | 2084.8 kg/m3 | –
1101.5 K | – | 2084.2 kg/m3 | –
1101.8 K | – | 2084.1 kg/m3 | –
1101.9 K | 0.05606 | – | –
1102.1 K | – | 2083.6 kg/m3 | –
1102.6 K | – | 2082.9 kg/m3 | –
1102.9 K | – | 2082.4 kg/m3 | –
1103.2 K | – | 2082.3 kg/m3 | –
1103.6 K | 0.05634 | – | –
1103.8 K | – | 2081.7 kg/m3 | –
1104.2 K | – | 2081.1 kg/m3 | –
1104.6 K | – | 2080.5 kg/m3 | –
1105.2 K | – | 2079.9 kg/m3 | –
1105.3 K | 0.05637 | – | –
1105.5 K | – | 2079.3 kg/m3 | –
1105.7 K | – | 2079.2 kg/m3 | –
1106.3 K | – | 2078.6 kg/m3 | –
1106.6 K | – | 2078 kg/m3 | –
1107 K | – | 2077.4 kg/m3 | –
1107.1 K | 0.05654 | – | –
1107.6 K | – | 2077.4 kg/m3 | –
1107.9 K | – | 2076.8 kg/m3 | –
1108.5 K | – | 2076.1 kg/m3 | –
1108.8 K | 0.05671 | 2076.1 kg/m3 | –
1109.1 K | – | 2074.4 kg/m3 | –
1109.5 K | – | 2073.8 kg/m3 | –
1110 K | – | 2073.2 kg/m3 | –
1110.3 K | – | 2073.1 kg/m3 | –
1110.5 K | 0.05682 | – | –
1110.6 K | – | 2072 kg/m3 | –
1111.2 K | – | 2071.9 kg/m3 | –
1111.6 K | – | 2071.3 kg/m3 | –
1111.8 K | – | 2070.8 kg/m3 | –
1112 K | – | – | 221.4
1112.3 K | 0.05703 | 2070.1 kg/m3 | –
1112.8 K | – | 2069.5 kg/m3 | –
1113 K | – | 2069.5 kg/m3 | –
1113.5 K | – | 2068.9 kg/m3 | –
1114 K | 0.05718 | – | –
1114.2 K | – | 2068.3 kg/m3 | –
1114.3 K | – | 2068.2 kg/m3 | –
1114.7 K | – | 2067.1 kg/m3 and 2067.6 kg/m3 | –
1114.9 K | – | 2066.5 kg/m3 | –
1115.4 K | – | 2066.4 kg/m3 | –
1115.7 K | 0.05729 | 2065.9 kg/m3 | –
1115.9 K | – | 2065.3 kg/m3 | –
1116.2 K | – | 2064.7 kg/m3 | –
1116.7 K | – | 2064.6 kg/m3 | –
1117 K | – | 2064 kg/m3 | –
1117.4 K | 0.05756 | – | –
1117.5 K | – | 2063.4 kg/m3 | –
1118 K | – | 2068.9 kg/m3 | –
1118.4 K | – | 2068.3 kg/m3 | –
1118.8 K | – | 2067.7 kg/m3 | –
1119 K | – | 2067.7 kg/m3 | –
1119.2 K | 0.05765 | – | –
1119.4 K | – | 2067.1 kg/m3 | –
1119.7 K | – | 2066.5 kg/m3 | –
1120.1 K | – | 2065.9 kg/m3 | –
1120.5 K | – | 2065.8 kg/m3 | –
1120.9 K | 0.0578 | – | –
1121 K | – | 2069.1 kg/m3 | –
1121.2 K | – | 2068.5 kg/m3 | –
1121.7 K | – | 2067.9 kg/m3 | –
1122.2 K | – | 2067.3 kg/m3 | –
1122.5 K | – | 2066.7 kg/m3 | –
1122.7 K | 0.05808 | – | –
1123.3 K | – | 2066.1 kg/m3 and 2066.6 kg/m3 | –
1123.7 K | – | 2065.5 kg/m3 | –
1124.4 K | 0.05824 | 2064.8 kg/m3 | –
1124.8 K | – | 2064.2 kg/m3 | –
1125.1 K | – | 2063.6 kg/m3 | –
1126 K | – | 2063.5 kg/m3 | –
1126.1 K | 0.05803 | – | –
1126.2 K | – | 2062.9 kg/m3 | –
1126.3 K | – | 2062.4 kg/m3 | –
1126.7 K | – | 2061.8 kg/m3 | –
1127.5 K | – | 2061.1 kg/m3 | –
1127.9 K | 0.05831 | 2060.5 kg/m3 and 2061.1 kg/m3 | –
1128.4 K | – | 2059.9 kg/m3 | –
1128.8 K | – | 2059.9 kg/m3 | –
1128.9 K | – | 2069.8 kg/m3 | –
1129.5 K | 0.0585 | – | –
1129.8 K | – | 2069.1 kg/m3 | –
1130.2 K | – | 2068.5 kg/m3 | –
1130.3 K | – | 2068 kg/m3 | –
1131 K | – | 2067.3 kg/m3 | 218.4
